In turn, `O=C(NCCCc1ccncc1)N(CCCc1ccccc1)C(c1ccccc1)c1ccccc1` [Compound No. 1-93, 1-Diphenylmethyl-1-(3-phenylpropyl)-3-[3-(4-pyridyl)propyl]urea] yielded a melting point of 123 to 124.8 °C. The figure for `CCCCCN(CCC12CC3CC(CC(C3)C1)C2)C(=O)NCCC(C)c1ccncc1` (stereo not drawn) [Compound No. 1-104, 1-[2-(1-Adamantyl)ethyl]-1-pentyl-3-[3-(4-pyridyl)butyl]urea] is 93 to 98 °C. The figure for `O=C(NCCCc1ccncc1)N(CCCC(F)(F)F)CCC12CC3CC(CC(C3)C1)C2` [Compound No. 1-105, 1-[2-(1-Adamantyl)ethyl]-3-[3-(4-pyridyl)propyl]-1-(4,4,4-trifluorobutyl)urea] is 142.6 to 145 °C. `O=C(NCCCc1ccncc1)N(CCCCC(F)(F)F)CCC12CC3CC(CC(C3)C1)C2` [Compound No. 1-106, 1-[2-(1-Adamantyl)ethyl]-3-[3-(4-pyridyl)propyl]-1-(5,5,5-trifluoropentyl)urea] registered a melting point of 116.9 to 118.9 °C. The molecule `CCCCCN(CCC12CC3CC(CC(C3)C1)C2)C(=O)NCC(CC)Cc1ccncc1` (stereo not drawn) [Compound No. 1-108, 1-[2-(1-Adamantyl)ethyl]-1-pentyl-3-[2-(4-pyridylmethyl)butyl]urea] yielded a melting point of 72 to 77 °C.

`CCCCCN(CCC12CC3CC(CC(C3)C1)C2)C(=O)NCC(Cc1ccccc1)Cc1ccncc1` (stereo not drawn) [Compound No. 1-109, 1-[2-(1-Adamantyl)ethyl]-3-[2-benzyl-3-(4-pyridyl)propyl]-1-pentylurea] showed a melting point of 111 to 116 °C.

With `CCCCCN(CCC12CC3CC(CC(C3)C1)C2)C(=O)NCC(Cc1ccncc1)Cc1ccncc1` [Compound No. 1-110, 1-[2-(1-Adamantyl)ethyl]-3-[2,2-bis(4-pyridylmethyl)ethyl]-1-pentylurea], the melting point was 124 to 136 °C. The figure for `CCCCCN(CCC12CC3CC(CC(C3)C1)C2)C(=O)NC/C=C/c1ccncc1` [Compound No. 1-112, (E)-1-[2-(1-Adamantyl)ethyl]-1-pentyl-3-[3-(4-pyridyl)-2-propenyl]urea] is 90 to 118 °C. Regarding `O=C(NCCCc1ccncc1)N(CCC12CC3CC(CC(C3)C1)C2)CC(F)(F)F` [Compound No. 1-114, 1-[2-(1-Adamantyl)ethyl]-3-[3-(4-pyridyl)propyl]-1-(2,2,2-trifluoroethyl)urea], the melting point was in the range of 106.2 to 107.3 °C. The molecule `CCCCCN(CCc1ccccc1)C(=O)NCC(C)Cc1ccncc1` (stereo not drawn) [Compound No. 1-115, 3-[2-Methyl-3-(4-pyridyl)propyl]-1-pentyl-1-phenethylurea] yielded a melting point of 49 to 50 °C. `CC(CNC(=O)N(CCC(F)(F)F)CCC12CC3CC(CC(C3)C1)C2)Cc1ccncc1` (stereo not drawn) [Compound No. 1-117, 1-[2-(1-Adamantyl)ethyl]-3-[2-methyl-3-(4-pyridyl)propyl]-1-(3,3,3-trifluoropropyl)urea] returned a melting point of 81.1 to 84.1 °C. The figure for `CCCCN(CCCC12CC3CC(CC(C3)C1)C2)C(=O)NCCCc1ccncc1` [Compound No. 1-122, 1-[3-(1-Adamantyl)propyl]-1-butyl-3-[3-(4-pyridyl)propyl]urea] is 79.8 to 80.4 °C; for `O=C(NCCCc1ccncc1)N(CCCC12CC3CC(CC(C3)C1)C2)CC(F)(F)F` [Compound No. 1-123, 1-[3-(1-Adamantyl)propyl]-3-[3-(4-pyridyl)propyl]-1-(2,2,2-trifluoroethyl)urea] it is 88.9 to 90 °C. The figure for `CCN(CCCCC12CC3CC(CC(C3)C1)C2)C(=O)NCCCc1ccncc1` [Compound No. 1-124, 1-[4-(1-Adamantyl)butyl]-1-ethyl-3-[3-(4-pyridyl)propyl]urea] is 92.7 to 93.7 °C; for `CCCN(CCCCC12CC3CC(CC(C3)C1)C2)C(=O)NCCCc1ccncc1` [Compound No. 1-125, 1-[4-(1-Adamantyl)butyl]-1-propyl-3-[3-(4-pyridyl)propyl]urea] it is 110 to 110.5 °C.

Usually melting point stands for the temperature, or range, at which the solid turns liquid.

Source of the values: patent publication US7923461B2, “TNF-α production inhibitors” (Santen Pharmaceutical Co., Ltd., priority 2000, dated 2011).
